Measured values as given in patent US20120138290A1, “METHODS TO STIMULATE BIOGENIC METHANE PRODUCTION FROM HYDROCARBON-BEARING FORMATIONS” (SYNTHETIC GENOMICS, INC., priority 2010, published 2012).
Where “and” joins values, the source holds several entries; their conditions need not be identical. Equal entries are not always repeated.

What was measured:
[1] = test system: functional microbial subcommunity (inoculum 2L-245 from upflow reactor); assay: Stimulation of methane production: batch cultures with additive/stimulant, with or without coal, headspace methane by gas chromatography; assay type: cell-based
Experimental: The availability of an inoculum of a functional microbial subcommunity capable of producing methane from coal in vitro prompted laboratory experiments where various stimulants were tested for their effect on methane production. […] The experiments were conducted at three different levels of additives (0.5×, 1× and 2×): additives (stimulants) were added in the following three concentrations. […] DMY media: DM media composition in milli-Q water is made as described above with the addition of 0.5 g/L yeast extract. DMSC media: DM media in milli-Q water is made as described above with the addition of 100 g/L sterile, anaerobic, sub-bituminous coal from the San Juan Basin. DMSCY media: DM media in milli-Q water is made as described above with the addition of 100 g/L sterile, anaerobic, sub-bituminous coal from the San Juan Basin and 0.5 g/L yeast extract. The coal used in these experiments originated from the San Juan Basin (BHP Billiton, Tex.). […] Each stimulant was tested in the presence or absence of coal. The experiments were conducted at three different concentrations of additives (0.5× (low), 1× (medium), and 2× (high)) as described above. Each sample type was conducted in 4 replicates. […] Control sample types were media alone, media plus coal, media plus yeast extract and media plus coal and yeast extract. At each time point, headspace measurements were taken using gas chromatography (microGC […], Agilent Technologies, Inc.). […] Each experiment was performed in quadruplicate. Methane at time 0 was assumed to be 0%.

[2] = test system: formate-utilizing, methane-producing species in the enrichment culture; assay: Stimulation of methane production by vanadium in cultures utilizing formate; assay type: cell-based; conditions: for Methane (% in head space volume of 21 ml): DM media with 50 mM formate, 48 hours at 50° C., replicate cultures
Experimental: The anaerobic reactor system described above in Example 1 contains formate-utilizing, methane-producing species in the enrichment culture. Methanogens in the culture were previously identified by 16sRNA sequencing.
A 10% vol./vol. inoculum was taken from the anaerobic reactor system described above in Example 1, and the effect of vanadium on methane production by methanogens utilizing formate as a carbon and energy source was determined.
Cultures, established with DM media (prepared as described above) containing 50 mM formate as the sole carbon and energy source, were sub-cultured with the same media (in the absence of vanadium) or media supplemented with either 5 or 10 μM VCl3. Methane production was measured after 48 hours of growth at 50° C.

[3] = DMSCY (coal), 125 μM Na2SO3, week 1
[4] = DMSCY (coal), 125 μM Na2SO3, week 3
[5] = DMSCY (coal), 125 μM Na2SO3, week 5
[6] = DMSCY (coal), 250 μM Na2SO3, week 1
[7] = DMSCY (coal), 250 μM Na2SO3, week 3
[8] = DMSCY (coal), 250 μM Na2SO3, week 5
[9] = DMSCY (coal), 500 μM Na2SO3, week 1
[10] = DMSCY (coal), 500 μM Na2SO3, week 3
[11] = DMSCY (coal), 500 μM Na2SO3, week 5
[12] = DMY (no coal), 125 μM Na2SO3, week 1
[13] = DMY (no coal), 125 μM Na2SO3, week 3
[14] = DMY (no coal), 125 μM Na2SO3, week 5
[15] = DMY (no coal), 250 μM Na2SO3, week 1
[16] = DMY (no coal), 250 μM Na2SO3, week 3
[17] = DMY (no coal), 250 μM Na2SO3, week 5
[18] = DMY (no coal), 500 μM Na2SO3, week 1
[19] = DMY (no coal), 500 μM Na2SO3, week 3
[20] = DMY (no coal), 500 μM Na2SO3, week 5
[21] = DMSCY (coal), 5.0 μM Na2MoO4, week 1
[22] = DMSCY (coal), 5.0 μM Na2MoO4, week 3
[23] = DMSCY (coal), 5.0 μM Na2MoO4, week 5
[24] = DMSCY (coal), 10 μM Na2MoO4, week 1
[25] = DMSCY (coal), 10 μM Na2MoO4, week 3
[26] = DMSCY (coal), 10 μM Na2MoO4, week 5
[27] = DMY (no coal), 5.0 μM Na2MoO4, week 1
[28] = DMY (no coal), 5.0 μM Na2MoO4, week 3
[29] = DMY (no coal), 5.0 μM Na2MoO4, week 5
[30] = DMY (no coal), 10 μM Na2MoO4, week 1
[31] = DMY (no coal), 10 μM Na2MoO4, week 3
[32] = DMY (no coal), 10 μM Na2MoO4, week 5
[33] = DMSCY (coal), 5 μM VCl3, week 1
[34] = DMSCY (coal), 5 μM VCl3, week 3
[35] = DMSCY (coal), 5 μM VCl3, week 5
[36] = DMSCY (coal), 10 μM VCl3, week 1
[37] = DMSCY (coal), 10 μM VCl3, week 3
[38] = DMSCY (coal), 10 μM VCl3, week 5
[39] = DMY (no coal), 5 μM VCl3, week 1
[40] = DMY (no coal), 5 μM VCl3, week 3
[41] = DMY (no coal), 5 μM VCl3, week 5
[42] = DMY (no coal), 10 μM VCl3, week 1
[43] = DMY (no coal), 10 μM VCl3, week 3
[44] = DMY (no coal), 10 μM VCl3, week 5

SMILES: O=S([O-])[O-].[Na+].[Na+] [Na2SO3, sodium sulfite]
- methane production (Average) [1, 3]: 0.27
- methane production (RepA-Rep D) [1, 3]: 0.26 and 0.24 and 0.25 and 0.32
- methane production (Average) [1, 4]: 1.02
- methane production (RepA-Rep D) [1, 4]: 1.04 and 0.97 and 0.99 and 1.06
- methane production (Average) [1, 5]: 1.25
- methane production (RepA-Rep D) [1, 5]: 1.21 and 1.22 and 1.25 and 1.31
- methane production (Average) [1, 6]: 20
- methane production (RepA-Rep D) [1, 6]: 0.23 and 0.18 and 0.19 and 0.20
- methane production (Average) [1, 7]: 1.07
- methane production (RepA-Rep D) [1, 7]: 1.04 and 1.02 and 1.06 and 1.18
- methane production (Average) [1, 8]: 1.42
- methane production (RepA-Rep D) [1, 8]: 1.26 and 1.24 and 1.45 and 1.74
- methane production (Average) [1, 9]: 0.14
- methane production (RepA-Rep D) [1, 9]: 0.14 and 0.13 and 0.15
- methane production (Average) [1, 10]: 1.04
- methane production (RepA-Rep D) [1, 10]: 1.01 and 0.98 and 1.07 and 1.04
- methane production (Average) [1, 11]: 1.35
- methane production (RepA-Rep D) [1, 11]: 1.34 and 1.26 and 1.37 and 1.41
- methane production (Average) [1, 12]: 0.21
- methane production (RepA-Rep D) [1, 12]: 0.20 and 0.21 and 0.22
- methane production (Average) [1, 13]: 0.71
- methane production (RepA-Rep D) [1, 13]: 0.71 and 0.68 and 0.69 and 0.75
- methane production (Average) [1, 14]: 0.68
- methane production (RepA-Rep D) [1, 14]: 0.66 and 0.69 and 0.71
- methane production (Average) [1, 15]: 0.14
- methane production (RepA-Rep D) [1, 15]: 0.14 and 0.15 and 0.13
- methane production (Average) [1, 16]: 0.67
- methane production (RepA-Rep D) [1, 16]: 0.67 and 0.63 and 0.65 and 0.72
- methane production (Average) [1, 17]: 0.62
- methane production (RepA-Rep D) [1, 17]: 0.62 and 0.59 and 0.65
- methane production (Average) [1, 18]: 0.09
- methane production (RepA-Rep D) [1, 18]: 0.09 and 0.08 and 0.10
- methane production (Average) [1, 19]: 0.68
- methane production (RepA-Rep D) [1, 19]: 0.71 and 0.64 and 0.74
- methane production (Average) [1, 20]: 0.74
- methane production (RepA-Rep D) [1, 20]: 0.83 and 0.68 and 0.76

SMILES: [Na+].[Na+].[O]=[Mo](=[O])([O-])[O-] [Na2MoO4, sodium molybdic]
- methane production (Average) [1, 21]: 0.34
- methane production (RepA-Rep D) [1, 21]: 0.39 and 0.28 and 0.31
- methane production (Average) [1, 22]: 1.19
- methane production (RepA-Rep D) [1, 22]: 1.13 and 1.09 and 1.14 and 1.40
- methane production (Average) [1, 23]: 1.41
- methane production (RepA-Rep D) [1, 23]: 1.39 and 1.31 and 1.29 and 1.63
- methane production (Average) [1, 24]: 0.44
- methane production (RepA-Rep D) [1, 24]: 0.43 and 0.47 and 0.44
- methane production (Average) [1, 25]: 1.10
- methane production (RepA-Rep D) [1, 25]: 1.03 and 1.15 and 1.14 and 1.07
- methane production (Average) [1, 26]: 1.13
- methane production (RepA-Rep D) [1, 26]: 1.11 and 1.14 and 1.15 and 1.13
- methane production (Average) [1, 27]: 0.29
- methane production (RepA-Rep D) [1, 27]: 0.25 and 0.27 and 0.30 and 0.33
- methane production (Average) [1, 28]: 0.83
- methane production (RepA-Rep D) [1, 28]: 0.77 and 0.85 and 0.79 and 0.91
- methane production (Average) [1, 29]: 0.79
- methane production (RepA-Rep D) [1, 29]: 0.76 and 0.78 and 0.74 and 0.87
- methane production (Average) [1, 30]: 0.29
- methane production (RepA-Rep D) [1, 30]: 0.30 and 0.26 and 0.32
- methane production (Average) [1, 31]: 0.82
- methane production (RepA-Rep D) [1, 31]: 0.85 and 0.71 and 0.81 and 0.90
- methane production (Average) [1, 32]: 0.77
- methane production (RepA-Rep D) [1, 32]: 0.77 and 0.72 and 0.74 and 0.83
- correlation of methane production with molybdate added to the cultures ([1]; FIG. 3B): negative correlation
- difference of effects with or without coal ([1]; molybdate, P=0.063): not statistically significantly different

SMILES: [Cl-].[Cl-].[Cl-].[V+3] [VCl3, vanadium (III) chloride]
- methane production (Average) [1, 33]: 0.27
- methane production (RepA-Rep D) [1, 33]: 0.30 and 0.26 and 0.25
- methane production (Average) [1, 34]: 1.50
- methane production (RepA-Rep D) [1, 34]: 1.51 and 1.40 and 1.21 and 1.88
- methane production (Average) [1, 35]: 2.44
- methane production (RepA-Rep D) [1, 35]: 2.41 and 2.28 and 1.95 and 3.13
- methane production (Average) [1, 36]: 0.25
- methane production (RepA-Rep D) [1, 36]: 0.29 and 0.25 and 0.24
- methane production (Average) [1, 37]: 1.06
- methane production (RepA-Rep D) [1, 37]: 1.15 and 1.04 and 1.01
- methane production (Average) [1, 38]: 1.36
- methane production (RepA-Rep D) [1, 38]: 1.49 and 1.31 and 1.30 and 1.33
- methane production (Average) [1, 39]: 0.20
- methane production (RepA-Rep D) [1, 39]: 0.21 and 0.20
- methane production (Average) [1, 40]: 0.71
- methane production (RepA-Rep D) [1, 40]: 0.78 and 0.69 and 0.67 and 0.80
- methane production (Average) [1, 41]: 0.70
- methane production (RepA-Rep D) [1, 41]: 0.75 and 0.70 and 0.68 and 0.67
- methane production (Average) [1, 42]: 0.22
- methane production (RepA-Rep D) [1, 42]: 0.21 and 0.251 and 0.19 and 0.22
- methane production (Average) [1, 43]: 0.77
- methane production (RepA-Rep D) [1, 43]: 0.85 and 0.7495 and 0.70 and 0.78
- methane production (Average) [1, 44]: 0.76
- methane production (RepA-Rep D) [1, 44]: 0.76 and 0.82 and 0.70 and 0.77
- effect on the production of methane ([1]; intermediate concentration of the stimulant (FIGS. 1A, 1B, 2A)): statistically significant positive effect
- dependence of methane production on coal ([1]; with or without coal): only observed in the presence of coal
- Methane (% in head space volume of 21 ml) ([2]; 5 μM VCl3 final): 2.0% and 1.2%
- Methane (% in head space volume of 21 ml) ([2]; 10 μM VCl3 final): 1.9% and 1.4%
- methane formation relative to cultures without VCl3 (average) ([2]; VCl3-supplemented cultures (5 or 10 μM), 50 mM formate, 48 hours): approximately 2 fold
